Columns and labels:
[1] = test system: mitochondrial ATP synthase; experiment: ATP synthesis (oxygen consumption, Seahorse XF96) in fresh heart mitochondria; assay type: biochemical, mouse; settings: Complex I or Complex II substrates (FIG. 1, FIG. 2)
Excerpt: (§1) To assess whether the fraction of synthetic and reverse hydrolytic activities of mitochondrial ATP synthase can be measured in the same preparation, a protocol was developed to monitor changes in oxygen consumption and proton release in response to changes in mitochondrial ATP synthase activity. The proton released and the concomitant changes in the pH can be monitored using the ECAR (extracellular acidification) channel in the Agilent Seahorse XF analyzer using isolated mitochondria, to ensure that the changes in pH cannot be attributed to glycolysis or other contributors to ECAR.
Mice were anesthetized with isoflurane followed by a cervical dislocation, and the heart was immediately removed and placed in ice cold relaxation buffer (5 mM sodium pyrophosphate, 100 mM KCl, 5 mM EGTA, 5 mM HEPES; pH 7.4). […] The mitochondrial pellets were re-suspended in ice cold HES buffer and mitochondrial protein was measured with a BCA assay (Pierce). […]
Oxygen consumption was measured in isolated fresh intact mitochondria from mouse heart, as oxygen consumption is linked to maximal ATP synthesis and proton release when mitochondria are respiring either in the presence of substrates and ADP (ATP synthesizing mitochondria or state 3) or in the presence of substrates but not ADP (state 4). […]

[2] = test system: mitochondrial ATP synthase; experiment: ATP hydrolysis (acidification, Seahorse XF96) in fresh heart mitochondria; assay type: biochemical, mouse; settings: fresh heart mitochondria (FIG. 1, FIG. 2)
Excerpt: as §1
Mice were anesthetized with isoflurane followed by a cervical dislocation, and the heart was immediately removed and placed in ice cold relaxation buffer (5 mM sodium pyrophosphate, 100 mM KCl, 5 mM EGTA, 5 mM HEPES; pH 7.4). The heart was squeezed with tweezers to remove blood, minced with scissors, and then placed in a glass-glass Dounce homogenizer with 3 mL of HES homogenization buffer (250 mM sucrose, 5 mM HEPES, 1 mM EDTA; pH to 7.2, adjusted with KOH). The heart tissue was homogenized first with the loose pestle and followed by the tight pestle. The homogenized tissue was placed in a pre-chilled 15 mL conical tube and centrifuged at 900×g (4° C.) for 10 minutes (min). The supernatant was removed, placed in a new tube and centrifuged again at 900×g for 10 min. The supernatant was then transferred to 2 mL microcentrifuge tubes and centrifuged at 10,000×g (4° C.) for 10 min. The mitochondrial pellets were re-suspended in ice cold HES buffer and mitochondrial protein was measured with a BCA assay (Pierce). The concentrated mitochondrial pellet was stored on ice. […]
ATP hydrolysis capacity or state 4 acidification was measured using Seahorse XF96 as described in Divakaruni et al. (2018) Anal Biochem 552:60-65 and Acin-Perez et al. (2021) Life 11(9):949, in MAS (70 mM Sucrose, 220 mM Mannitol, 5 mM KH2PO4, 5 mM MgCl2, 1 mM EGTA, 2 mM HEPES; pH 7.2). […]

Row | SMILES | ATP synthesis [1] | ATP hydrolysis [2]
1 | CN1C(=O)CC[C@@]2(C)C1=CCC1C2[C@@H](O)C[C@@]2(C)C1CC[C@@H]2NC(=O)C1CC1 (stereo partly drawn) [Compound 26, N-((4aR,5S,6aS,7S)-5-hydroxy-1,4a,6a-trimethyl-2-oxo-2,3,4,4a,4b,5,6,6a,7,8,9,9a,9b,10-tetradecahydro-1H-indeno[5,4-f]quinolin-7-yl)cyclopropanecarboxamide] | decreased ATP synthesis at the highest concentration | only mild changes in hydrolysis
2 | CNC(=O)[C@H]1CCC2C3CC=C4N(C)C(=O)CC[C@]4(C)C3[C@@H](O)C[C@@]21C (stereo partly drawn) [Compound 40, (4aR,5S,6aS)-5-hydroxy-N,1,4a,6a-tetramethyl-2-oxo-2,3,4,4a,4b,5,6,6a,7,8,9,9a,9b,10-tetradecahydro-1H-indeno[5,4-f] quinoline-7-carboxamide] |  | only mild changes in hydrolysis
